How the values were obtained:
Test in all cases: selective drug sensitivity score (sDSS, relative to normal bone marrow) (sDSS (score)); higher = more potent and effective on the cell line relative to normal bone marrow cells
Details in all cases: 72 h
[1] = tested on: NALL-1
[2] = tested on: REH
[3] = tested on: MHH-CALL-2
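Also: ALL cell lines in 384-well plates, five doses spanning 10,000-fold, each plate scaled between vehicle and 100 µmol/L benzalkonium chloride controls, sDSS an adapted area-under-curve metric.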

Structure (SMILES): CC(=O)OC[C@H]1O[C@@H]([S-])[C@H](OC(C)=O)[C@@H](OC(C)=O)[C@@H]1OC(C)=O.CCP(CC)CC.[Au+] [Auranofin] (top concentration 2500 nM)
- selective drug sensitivity score [1]: 3.14
- selective drug sensitivity score [2]: 6.04
- selective drug sensitivity score [3]: 8.14

Structure (SMILES): CNC(=O)c1ccccc1Sc1ccc2c(/C=C/c3ccccn3)n[nH]c2c1 [Axitinib] (top concentration 10000 nM)
- selective drug sensitivity score [1]: 5.56
- selective drug sensitivity score [2]: 9.36
- selective drug sensitivity score [3]: -0.34

Structure (SMILES): Cc1c(N)nc([C@H](CC(N)=O)NC[C@H](N)C(N)=O)nc1C(=O)N[C@H](C(=O)N[C@H](C)[C@@H](O)[C@H](C)C(=O)N[C@H](C(=O)NCCc1nc(-c2nc(C(=O)NCCC[S+](C)C)cs2)cs1)[C@@H](C)O)[C@@H](O[C@@H]1O[C@@H](CO)[C@@H](O)[C@H](O)[C@@H]1O[C@H]1O[C@H](CO)[C@@H](O)[C@H](OC(N)=O)[C@@H]1O)c1c[nH]cn1 [Bleomycin] (top concentration 10000 nM)
- selective drug sensitivity score [1]: -1.56
- selective drug sensitivity score [2]: 9.44
- selective drug sensitivity score [3]: 3.14

Structure (SMILES): CC(C)C[C@H](NC(=O)[C@H](Cc1ccccc1)NC(=O)c1cnccn1)B(O)O [Bortezomib] (top concentration 1000 nM)
- selective drug sensitivity score [1]: 2.52
- selective drug sensitivity score [2]: 4.92
- selective drug sensitivity score [3]: 3.82

Structure (SMILES): CCC/C=C/C=C/C(=O)O[C@H]1/C(=C/C(=O)OC)C[C@H]2C[C@H]([C@@H](C)O)OC(=O)C[C@H](O)C[C@@H]3C[C@H](OC(C)=O)C(C)(C)[C@](O)(C[C@@H]4C/C(=C/C(=O)OC)C[C@H](/C=C/C(C)(C)[C@]1(O)O2)O4)O3 [Bryostatin_1] (top concentration 100 nM)
- selective drug sensitivity score [1]: -7.12
- selective drug sensitivity score [2]: -7.12
- selective drug sensitivity score [3]: 8.68

Structure (SMILES): CO[C@H]1CC[C@H](N2C(=O)CNc3ncc(-c4ccc(C(C)(C)O)nc4)nc32)CC1 [CC-223] (top concentration 10000 nM)
- selective drug sensitivity score [1]: 5.52
- selective drug sensitivity score [2]: 4.22
- selective drug sensitivity score [3]: 6.42

Structure (SMILES): CN(C)c1cc2c(cc1Sc1nc3c(N)nccc3n1CCNCC(C)(C)C)OCO2 [CUDC-305] (top concentration 10000 nM)
- selective drug sensitivity score [1]: 0.42
- selective drug sensitivity score [2]: 3.32
- selective drug sensitivity score [3]: 1.02

Structure (SMILES): CO[C@H]1C(=O)[C@]2(C)[C@@H](OC)C[C@H]3OC[C@@]3(OC(C)=O)[C@H]2[C@H](OC(=O)c2ccccc2)[C@]2(O)C[C@H](OC(=O)[C@H](O)[C@@H](NC(=O)OC(C)(C)C)c3ccccc3)C(C)=C1C2(C)C [Cabazitaxel] (top concentration 1000 nM)
- selective drug sensitivity score [1]: 11.4
- selective drug sensitivity score [2]: 17.9
- selective drug sensitivity score [3]: 15.9

Structure (SMILES): C=CC(=O)Nc1cc2c(Nc3ccc(F)c(Cl)c3)ncnc2cc1OCCCN1CCOCC1 [Canertinib] (top concentration 10000 nM)
- selective drug sensitivity score [1]: -0.94
- selective drug sensitivity score [2]: 0.26
- selective drug sensitivity score [3]: 3.16

Structure (SMILES): CC(C)C[C@H](NC(=O)[C@H](CCc1ccccc1)NC(=O)CN1CCOCC1)C(=O)N[C@@H](Cc1ccccc1)C(=O)N[C@@H](CC(C)C)C(=O)[C@@]1(C)CO1 [Carfilzomib] (top concentration 1000 nM)
- selective drug sensitivity score [1]: 0.56
- selective drug sensitivity score [2]: 3.16
- selective drug sensitivity score [3]: 1.56

Structure (SMILES): O=C(c1ccc(F)c(F)c1Nc1ccc(I)cc1F)N1CC(O)([C@@H]2CCCCN2)C1 [Cobimetinib] (top concentration 1000 nM)
- selective drug sensitivity score [1]: -1.88
- selective drug sensitivity score [2]: -3.68
- selective drug sensitivity score [3]: 0.42

Structure (SMILES): COc1c(OCCCN2CCOCC2)ccc2c1N=C(NC(=O)c1cnc(N)nc1)N1CCN=C21 [Copanlisib] (top concentration 1000 nM)
- selective drug sensitivity score [1]: -0.62
- selective drug sensitivity score [2]: 8.28
- selective drug sensitivity score [3]: 6.18

Structure (SMILES): Cn1c(=O)n(-c2ccc(C(C)(C)C#N)cc2)c2c3cc(-c4cnc5ccccc5c4)ccc3ncc21 [Dactolisib] (top concentration 1000 nM)
- selective drug sensitivity score [1]: 3.46
- selective drug sensitivity score [2]: 12.9
- selective drug sensitivity score [3]: 9.36

Structure (SMILES): O=C(/C=C/c1cccnc1)NCCCCC1CCN(C(=O)c2ccccc2)CC1 [Daporinad] (top concentration 1000 nM)
- selective drug sensitivity score [1]: 15.9
- selective drug sensitivity score [2]: 15.5
- selective drug sensitivity score [3]: 11.4

Structure (SMILES): CC(=O)N(O)CCCCCNC(=O)CCC(=O)N(O)CCCCCNC(=O)CCC(=O)N(O)CCCCCN [Deferoxamine] (top concentration 10000 nM)
- selective drug sensitivity score [1]: -0.74
- selective drug sensitivity score [2]: 2.46
- selective drug sensitivity score [3]: 7.66

Structure (SMILES): Cc1cc(Nc2cc(N3CCN(C)CC3)nc(/C=C/c3ccccc3)n2)n[nH]1 [ENMD-2076] (top concentration 10000 nM)
- selective drug sensitivity score [1]: 5.84
- selective drug sensitivity score [2]: 4.14
- selective drug sensitivity score [3]: 5.44

Structure (SMILES): Cc1cnc(Nc2ccc(OCCN3CCCC3)cc2)nc1Nc1cccc(S(=O)(=O)NC(C)(C)C)c1 [Fedratinib] (top concentration 10000 nM)
- selective drug sensitivity score [1]: -1.56
- selective drug sensitivity score [2]: -2.76
- selective drug sensitivity score [3]: -0.26

Structure (SMILES): COc1ccc(-c2nc(N3CCOCC3)c3sc(CN(C)c4ncc(C(=O)NO)cn4)cc3n2)cn1 [Fimepinostat (CUDC-907)] (top concentration 10000 nM)
- selective drug sensitivity score [1]: -3.42
- selective drug sensitivity score [2]: 2.78
- selective drug sensitivity score [3]: 10.3

Structure (SMILES): CCOC(=O)CCNc1cc(N2CCc3ccccc3CC2)nc(-c2ccccn2)n1 [GSK-J4] (top concentration 100000 nM)
- selective drug sensitivity score [1]: -9.18
- selective drug sensitivity score [2]: -7.88
- selective drug sensitivity score [3]: -7.18

Structure (SMILES): Cc1cc(Nc2cc(CN3CCOCC3)c3nc(C)c(Cc4ccc(Cl)cc4F)n3n2)n[nH]1 [Gandotinib] (top concentration 10000 nM)
- selective drug sensitivity score [1]: 4.88
- selective drug sensitivity score [2]: 4.98
- selective drug sensitivity score [3]: 7.48

Structure (SMILES): NC(=O)NO [Hydroxyurea] (top concentration 1000000 nM)
- selective drug sensitivity score [1]: -3.74
- selective drug sensitivity score [2]: 4.06
- selective drug sensitivity score [3]: 4.56

Structure (SMILES): Cc1ccc(NC(=O)c2ccc(CN3CCN(C)CC3)cc2)cc1Nc1nccc(-c2cccnc2)n1 [Imatinib] (top concentration 10000 nM)
- selective drug sensitivity score [1]: -0.44
- selective drug sensitivity score [2]: 0.56
- selective drug sensitivity score [3]: 0.16

Structure (SMILES): CC(C)NC[C@@H](C(=O)N1CCN(c2ncnc3c2[C@H](C)C[C@H]3O)CC1)c1ccc(Cl)cc1 [Ipatasertib] (top concentration 10000 nM)
- selective drug sensitivity score [1]: 1.8
- selective drug sensitivity score [2]: 13.2
- selective drug sensitivity score [3]: 4.7

Structure (SMILES): CCC(C)n1ncn(-c2ccc(N3CCN(c4ccc(OCC5COC(Cn6cncn6)(c6ccc(Cl)cc6Cl)O5)cc4)CC3)cc2)c1=O (configuration not stated) [Itraconazole] (top concentration 5000 nM)
- selective drug sensitivity score [1]: -4.12
- selective drug sensitivity score [2]: -4.32
- selective drug sensitivity score [3]: 5.48

Structure (SMILES): Cc1sc2c(c1C)C(c1ccc(Cl)cc1)=N[C@@H](CC(=O)OC(C)(C)C)c1nnc(C)n1-2 [JQ1] (top concentration 10000 nM)
- selective drug sensitivity score [1]: 0.42
- selective drug sensitivity score [2]: -3.58
- selective drug sensitivity score [3]: 9.62

Structure (SMILES): CCNC(=O)c1noc(-c2cc(C(C)C)c(O)cc2O)c1-c1ccc(CN2CCOCC2)cc1 [Luminespib] (top concentration 1000 nM)
- selective drug sensitivity score [1]: -5.8
- selective drug sensitivity score [2]: -1.5
- selective drug sensitivity score [3]: -3.9

Structure (SMILES): O=C(c1cccc(Cl)c1F)N1CCN(Cc2cccc(Nc3nccs3)n2)CC1 [MK-8745] (top concentration 10000 nM)
- selective drug sensitivity score [1]: 12.4
- selective drug sensitivity score [2]: 11.6
- selective drug sensitivity score [3]: 12.2

Structure (SMILES): Cc1ccc(NC(=O)c2ccc(CN3CCN(C)CC3)cc2)cc1Nc1nc(-c2cccnc2)cs1 [Masitinib] (top concentration 10000 nM)
- selective drug sensitivity score [1]: -4.38
- selective drug sensitivity score [2]: -0.98
- selective drug sensitivity score [3]: -1.68

Structure (SMILES): CCN(CC)CCCC(C)Nc1c2ccc(Cl)cc2nc2ccc(OC)cc12 (configuration not stated) [Mepacrine] (top concentration 50000 nM)
- selective drug sensitivity score [1]: -10
- selective drug sensitivity score [2]: -3.3
- selective drug sensitivity score [3]: -5.6

Structure (SMILES): COc1ccc(-c2ccc3ncc4c(c3c2)n(-c2ccc(N3CCNCC3)c(C(F)(F)F)c2)c(=O)n4C)cn1 [NVP-BGT226] (top concentration 1000 nM)
- selective drug sensitivity score [1]: -2.88
- selective drug sensitivity score [2]: 8.22
- selective drug sensitivity score [3]: 3.92

Structure (SMILES): COc1nc(N)nc2c1ncn2[C@@H]1O[C@H](CO)[C@@H](O)[C@@H]1O [Nelarabine] (top concentration 10000 nM)
- selective drug sensitivity score [1]: -10.2
- selective drug sensitivity score [2]: -6.32
- selective drug sensitivity score [3]: -4.22

Structure (SMILES): Cc1cn(-c2cc(NC(=O)c3ccc(C)c(Nc4nccc(-c5cccnc5)n4)c3)cc(C(F)(F)F)c2)cn1 [Nilotinib] (top concentration 10000 nM)
- selective drug sensitivity score [1]: 5.8
- selective drug sensitivity score [2]: 2.5
- selective drug sensitivity score [3]: 8.9

Structure (SMILES): NC(=O)c1cccc2cn(-c3ccc(C4CCCNC4)cc3)nc12 (configuration not stated) [Niraparib] (top concentration 10000 nM)
- selective drug sensitivity score [1]: 4.08
- selective drug sensitivity score [2]: -0.02
- selective drug sensitivity score [3]: 3.78

Structure (SMILES): COc1ccc(C[C@H](NC(=O)[C@H](C)NC(=O)CN2CCOCC2)C(=O)N[C@@H](Cc2ccccc2)C(=O)[C@@]2(C)CO2)cc1 [ONX-0914] (top concentration 10000 nM)
- selective drug sensitivity score [1]: 9.8
- selective drug sensitivity score [2]: -1.6
- selective drug sensitivity score [3]: 0.5

Structure (SMILES): CC(=O)c1cnc2ccc(-c3cc(Cl)c(O)c(Cl)c3)nc2c1N[C@H]1CC[C@H](CN(C)C)CC1 [OTS167] (top concentration 1000 nM)
- selective drug sensitivity score [1]: -8.72
- selective drug sensitivity score [2]: 2.18
- selective drug sensitivity score [3]: 3.18

Structure (SMILES): COC(=O)C[C@](O)(CCCC(C)(C)O)C(=O)O[C@@H]1C(OC)=C[C@]23CCCN2CCc2cc4c(cc2[C@H]13)OCO4 [Omacetaxine] (top concentration 10000 nM)
- selective drug sensitivity score [1]: -6.78
- selective drug sensitivity score [2]: -1.08
- selective drug sensitivity score [3]: 3.82

Structure (SMILES): C1=N/C2=N/c3ccc(OCCN4CCCC4)c(c3)COC/C=C/COCc3cccc(c3)C(=C1)N2 [Pacritinib] (top concentration 10000 nM)
- selective drug sensitivity score [1]: -8.4
- selective drug sensitivity score [2]: -3.2
- selective drug sensitivity score [3]: -7.9

Structure (SMILES): Cc1[nH]c2ccccc2c1CCNCc1ccc(/C=C/C(=O)NO)cc1 [Panobinostat] (top concentration 1000 nM)
- selective drug sensitivity score [1]: -0.46
- selective drug sensitivity score [2]: 0.44
- selective drug sensitivity score [3]: 8.44

Structure (SMILES): Cc1ccc(Nc2nccc(N(C)c3ccc4c(C)n(C)nc4c3)n2)cc1S(N)(=O)=O [Pazopanib] (top concentration 10000 nM)
- selective drug sensitivity score [1]: -1.26
- selective drug sensitivity score [2]: 4.14
- selective drug sensitivity score [3]: 6.24

From the supplement of paper PMC8967900
